Experimental data taken from article PMC9863691, “A Novel Ferroptosis Inhibitor UAMC-3203, a Potential Treatment for Corneal Epithelial Wound” (Pharmaceutics, 2022).

What was measured:
[1] = pH 7.4
[2] = chemical stability of 100 µM solution in PBS; assay type: physicochemical
Procedure: The chemical stability of 100 µM UAMC-3203 in PBS (pH 7.4) was investigated for 30 days as described previously. Briefly, four batches with triplicates were stored at 4, 25, or 37 °C with light protection and at 25 °C without light protection. Separate solutions were used for pH-dependent stability studies. Samples were collected, and pH was measured at various times. The samples were stored at −20 °C until HPLC analysis.
The quantitation of UAMC-3203 was performed with […] reverse-phase HPLC system consisting of a degasser (G1379B), multi-sampler (G1367D), a binary pump (G1312B), a thermostat (G1316B), and a diode array detector (DAD) detector (G1315C). A Zorbax Eclipse XDB-C18 (4.6 × 50 mm, 4 μm; Agilent Technologies, Santa Clara, CA, USA) column was used for the analyses. The mobile phase was composed of 0.1% […] (Sigma-Aldrich, St. Louis, MO, USA) in Milli-Q-H2O and 0.1% […] in acetonitrile (LC-MS Chromasolv, Honeywell, Riedel-de Haen, Seelze, Germany) (65:35% v/v). Isocratic analysis was performed at a flow rate of 1 mL/min. The injection volume was 5 μL, and the detection wavelength was 240 nm.

[3] = test system: mouse model of (multi)organ dysfunction and death; parameters: method as in PMID 35210435; settings: cited from earlier work
[4] = human microsome; cited from earlier work
ferroptosis = test system: ferroptosis; parameters: method as in PMID 30354101; settings: read-out: in vitro potency IC50 (ferroptosis); cited from earlier work
HCE cells = experiment: in vitro cytotoxicity, MTT assay; assay type: cell-based, human; settings: 3 h exposure
Procedure: The cytotoxicity of UAMC-3203 was assessed by MTT assay. The HCE cells were seeded on a 96-well plate at a density of 100,000 cells/well in 200 µL of supplemented growth medium. The next day the cells were washed with PBS (pH 7.2). The cells were then exposed to UAMC-3203 at concentrations 10 nM, 1 µM, 10 µM, and 50 µM for 3 h. For control, cells not exposed to UAMC-3203 cultured in a serum-free medium were used. The cells were then washed twice with PBS and incubated 2 h with 100 µL of 10% of thiazolyl blue tetrazolium bromide (MTT, Sigma-Aldrich, St. Louis, MO, USA) in a serum-free medium. An amount of 100 µL of 20% (w/v) sodium dodecyl sulfate (SDS), N-dimethylformamide (DMF) lysis buffer was added to each well and incubated overnight. The following day, cell viability was evaluated by measuring absorbance at 570 nm with a Victor^2 multilabel plate reader (PerkinElmer, Wallac, St. Paul, MN, USA). The cell viability % was calculated as below:(2) % of cell viability=Abs exposed cells−Abs blank/Abs non−exposed cells−Abs blank×100 where Abs exposed cells = absorbance of cells exposed to UAMC-3203; Abs blank = absorbance of well plates without cells; and Abs non–exposed cells = Absorbance of cells exposed to serum-free medium (i.e., control).

[5] = test system: human corneal epithelial (HCE) cells; experiment: in vitro scratch assay; assay type: cell-based; settings: for HCE cell migration (%): 72 h, negative control 55.6 ± 17.6%
Procedure: In vitro scratch assay was performed in confluent HCE monolayer as previously reported. HCE cells were seeded on 24-well plates at 1 × 10^5 cells/well incubated for 24 h. The monolayer was scratched with sterile 10 µL pipette tips perpendicular to the lines to create a consistent cell-free area. The cells were washed three times with pre-warmed PBS to remove detached cells. The cells were then exposed to UAMC-3203 at different concentrations (10 nM, 1 µM, 10 µM, 50 µM) in serum-free DMEM (Dulbecco’s Modified Eagle Medium): F12 media that was supplemented with 1% penicillin-streptomycin solution […] penicillin, 0.1 mg/mL streptomycin (Corning, Ref 30-002-CI, Mediatech Inc., Discovery Boulevard, Manassas, VA, USA). Serum-free medium was used as a negative control, and 1.5% fetal bovine serum (FBS 10270, Gibco by Life Technologies, Carlsbad, CA, USA) supplemented medium was used as a positive control. The well plates were then transferred to Cell-IQ (CM Technologies Limited, Tampere, Finland) and maintained in standard tissue culture conditions (37 °C, 5% CO2-atmosphere).
Images were taken immediately after scratch (less than 1 h) and at 6, 12, 24, 30, 42, 48, and 72 h and analyzed by Cell-IQ analyzer. Three independent experiments were performed, using two to three wells for each stimulating condition. Cell migration (A%) was calculated as follows:(1) A%=A0−At/A0×100 where A0 and At represent the wound areas at 0 h and each timepoint, respectively.

O=S(=O)(NCCN1CCNCC1)c1ccc(NC2CCCCC2)c(NCc2ccccc2)c1 [UAMC-3203]
Log D7.4 [1]: 0.95 | % of initial concentration at day 30 ([2]; 100 µM in PBS pH 7.4, various temperatures and light exposure conditions): about 90% | pH of the solution during 30 days ([2]; starting pH 7.4, all conditions): 7.5–7.6 | efficacy compared to Fer-1 [3]: more effective | t1/2 in human microsome [4]: 20 h | IC50 (ferroptosis): 10 nM | toxicity to HCE cells (HCE cells; 10 nM): did not cause any toxicity | toxicity to HCE cells (HCE cells; 1 µM): did not cause any toxicity | HCE cell viability (HCE cells; 10 µM): 75 ± 6.7% | HCE cell viability (HCE cells; 50 µM): 39.2 ± 5.6% | HCE cell migration (%) ([5]; 10 nM): 84.9 ± 12.5% | HCE cell migration (%) ([5]; 1 µM): 76.6 ± 15.2% | cell migration compared to negative control ([5]; 10 µM): no notable difference at any time point | change of scratch area ([5]; 50 µM): did not cause any changes in the scratch area | optimal concentration for corneal epithelial wound healing effect in vitro ([5]; in vitro): 10 nM
